In US10918891B2, “Cosmetic treatment method for the skin” (SYNTIVIA, priority 2016, dated 2021):

Assays:
Sirtuin-6 = test: Gene expression of Sirtuin-6 by real-time quantitative PCR in NHDF; assay type: cell-based, human
Method: The cells used for this example are normal human Fibroblasts (NHDF) The cells are inoculated in 96-well plates at a concentration of 10000 cells per well.
The contact with the compound tested is carried out for 24 h. After the 24 h contact, the supernatant is eliminated and the cells are collected in a lysis solution in order to extract the mRNA. The mRNA is reverse transcribed into DNA then quantified by real-time quantitative PCR.

[1] = system: NativeSkin® skin explants (Genoskin); test: Histological analysis (haematoxylin/eosin) of NativeSkin skin explant ex vivo after UVA irradiation; assay type: cell-based, human; conditions: composition 0.9 mmol/L topical, 60 J/cm^2 UVA every day for 3 days, FIG. 5
Method: The test was carried out on NativeSkin® skin explants (Genoskin), a biopsy of skin bathed in a solid, nourishing matrix while its epidermal surface is preserved in contact with the air. The biopsy is firmly anchored in the matrix and sealed in order to prevent any lateral diffusion of formulation intended for topical application.
The study was carried out on a donor (phototype 2) under the following conditions.
The compounds tested are implemented in a composition containing them at 0.9 mmol/L in a mixture of Carbopol® (0.5% p/p), DMSO (0.1% p/p) and H2O (qsp 100%).
The samples are irradiated at 60 J/cm^2 UVA every day for 3 days. A treatment is carried out for 24 h before the irradiation, by application of the composition tested onto the sample (deposition of 40 μl of composition onto the stratum corneum), then a post-treatment of 24 h after the irradiation, in the same manner.
A Control of the sample of skin non-irradiated and a Control of the sample of skin irradiated are also carried out, both with application of the vehicle alone (0.5% Carbopol®, 0.1% DMSO, H2O). The Control of the non-irradiated sample of skin is introduced into the irradiator in a sheet of aluminium, in such a way as to protect it against UVs.
The samples are sampled, cut (according to the conventional method of cryo-sectioning implementing paraffin and freezing) and fixed in 1 ml of formalin for 24 h.
The explants are then included in paraffin and sections of 5 μm are made.
The slides are then coloured with haematoxylin (basic compound marking the nuclei) and eosin (acidic compound marking the conjunctive tissue).
The analysis of the marking is carried out with a DM5000B fluorescence microscope (Leica Microsystems) and 10 images are acquired for each sample.

SMILES: Cc1ncc(CO)c(CNC(=O)/C=C/c2ccc(O)c(O)c2)c1O [Compound (Ia)]
- Gene expression of the sirtuin-6 compared to the basal level based on 100% (Sirtuin-6; 24 h contact): 166%
- stimulation of the expression of the gene of the Sirtuin-6 with respect to the untreated control (Sirtuin-6; see Example 13): 66%
- Morphology of the epidermis after UVA irradiation (histological analysis) [1]: totally protected
